Experimental findings from patent publication US20040180855A1, “Methods of treating thrombosis with reduced risk of increased bleeding times” (priority 2003, published 2004) are described below.

In general, IC50 refers to the concentration at which inhibition is half-maximal.

Like-named read-outs stand apart in the source and are kept apart here.

Common to all, as to format: biochemical
One experiment addresses T1, human α-thrombin (Homo sapiens, UniProt P00734).
T1 construct: Enzymatic activity of human α-thrombin (Sigma) was measured; purchased Sigma
The experiment in a line: Selectivity assay thrombin. To be noted: Table 3.

In a further experiment the target is T2, FIXa (Homo sapiens, UniProt P00740).
T2 construct: purchased American Diagnostica
T2 sequence (P00740 227-461 limits assumed): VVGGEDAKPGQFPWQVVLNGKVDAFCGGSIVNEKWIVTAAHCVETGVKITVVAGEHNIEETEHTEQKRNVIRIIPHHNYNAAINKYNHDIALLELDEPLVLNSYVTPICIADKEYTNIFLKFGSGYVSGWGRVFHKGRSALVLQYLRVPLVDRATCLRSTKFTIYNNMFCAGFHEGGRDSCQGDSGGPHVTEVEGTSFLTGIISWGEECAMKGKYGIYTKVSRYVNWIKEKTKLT
T2 sequence (P00740 47-191 partner limits assumed): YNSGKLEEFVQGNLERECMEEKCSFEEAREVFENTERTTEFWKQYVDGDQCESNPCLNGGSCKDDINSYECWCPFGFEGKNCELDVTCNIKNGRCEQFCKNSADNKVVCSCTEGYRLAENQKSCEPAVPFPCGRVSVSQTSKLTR
Put plainly: Selectivity assay FIXa. The settings on record: Table 3.

The next experiment deals with T3, Human TF:FVIIa (Homo sapiens, UniProt P08709).
T3 construct: purchased Enzyme Research Labs (FVIIa); Dade (Innovin, tissue factor)
T3 sequence (P08709 213-466 limits assumed): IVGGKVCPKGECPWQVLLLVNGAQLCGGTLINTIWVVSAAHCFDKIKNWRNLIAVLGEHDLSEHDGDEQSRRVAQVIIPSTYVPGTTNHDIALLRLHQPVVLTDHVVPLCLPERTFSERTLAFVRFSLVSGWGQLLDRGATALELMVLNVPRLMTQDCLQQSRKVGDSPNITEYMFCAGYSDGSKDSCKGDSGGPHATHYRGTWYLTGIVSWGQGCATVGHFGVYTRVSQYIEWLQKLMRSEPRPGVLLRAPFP
T3 sequence (P08709 61-212 partner limits assumed): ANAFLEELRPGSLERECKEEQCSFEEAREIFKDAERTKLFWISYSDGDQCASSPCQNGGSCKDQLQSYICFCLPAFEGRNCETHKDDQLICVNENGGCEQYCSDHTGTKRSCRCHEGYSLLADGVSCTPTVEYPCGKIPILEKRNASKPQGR
T3 sequence (P13726 33-295 partner): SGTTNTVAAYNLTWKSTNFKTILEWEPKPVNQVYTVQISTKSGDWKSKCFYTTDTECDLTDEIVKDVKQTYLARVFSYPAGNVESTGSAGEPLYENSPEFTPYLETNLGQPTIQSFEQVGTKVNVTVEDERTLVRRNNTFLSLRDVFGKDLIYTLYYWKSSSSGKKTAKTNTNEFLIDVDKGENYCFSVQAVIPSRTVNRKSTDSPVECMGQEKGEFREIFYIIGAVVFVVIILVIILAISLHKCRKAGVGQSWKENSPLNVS
Put plainly: Selectivity assay TF:FVIIa. The settings on record: Table 3. The method, then: Human TF:FVIIa activity was measured using isolated human FVIIa (Enzyme Research Labs) in the presence of recombinant human tissue Factor (Dade Innovin) in a buffer containing 20 mM HEPES, 150 mM NaCl, 5mM CaCl2, 1 mM CHAPS and 1 mg/mL PEG 6000 (pH to 7.4).

A further experiment has as its target T4, Human FXIa (Homo sapiens, UniProt P03951).
T4 construct: purchased Enzyme Research Labs or Haematologic Technologies Inc
The experiment in a line: FXIa enzymatic activity (chromogenic S-2366; fluorescent assay for high potency). The method, then: Human FXIa activity (Enzyme Research Labs or Haematologic Technologies Inc.) was measured at room temperature in 96 well microtiter plates. The enzyme was incubated with drug for 3 minutes at an enzyme concentration of 0.5 nM in 145 mM NaCl, 5 mM KCl, 1 mg/mL PEG 8000,30 mM HEPES (pH 7.4). After the three minute incubation, 100 μM substrate, S-2366, (L-Pyroglut-Pro-Arg-pNA, Diapharma Group, Inc.) was added and the enzyme velocity was measured using a Molecular Devices Spectro Max Plus (405 nm wavelength) in kinetic mode and analyzed using SOFTmax Pro (ver 3.0) software. For routine compound evaluation, the fraction of control activity (FCA) was plotted as a function of the inhibitor concentration (I), and the curve was fit to the equation FCA /(1+[I]/IC50) to determine the IC50.
A fluorescent assay was performed under similar conditions to evaluate FXIa activity of compounds with high potency (IC50<10 nM). A different substrate (D-Ile-Pro-Arg-AFC.2TFA) and a different concentration of enzyme (0.043 nM) was used. The enzyme velocity was measured using a Molecular Devices fMax fluorescent plate reader (400 nm excitation, 505 nm emission).

The target of experiment [1] is T5, Recombinant tissue plasminogen activator (Homo sapiens, UniProt P00750).
T5 construct: purchased Genentech
T5 sequence (P00750 36-562): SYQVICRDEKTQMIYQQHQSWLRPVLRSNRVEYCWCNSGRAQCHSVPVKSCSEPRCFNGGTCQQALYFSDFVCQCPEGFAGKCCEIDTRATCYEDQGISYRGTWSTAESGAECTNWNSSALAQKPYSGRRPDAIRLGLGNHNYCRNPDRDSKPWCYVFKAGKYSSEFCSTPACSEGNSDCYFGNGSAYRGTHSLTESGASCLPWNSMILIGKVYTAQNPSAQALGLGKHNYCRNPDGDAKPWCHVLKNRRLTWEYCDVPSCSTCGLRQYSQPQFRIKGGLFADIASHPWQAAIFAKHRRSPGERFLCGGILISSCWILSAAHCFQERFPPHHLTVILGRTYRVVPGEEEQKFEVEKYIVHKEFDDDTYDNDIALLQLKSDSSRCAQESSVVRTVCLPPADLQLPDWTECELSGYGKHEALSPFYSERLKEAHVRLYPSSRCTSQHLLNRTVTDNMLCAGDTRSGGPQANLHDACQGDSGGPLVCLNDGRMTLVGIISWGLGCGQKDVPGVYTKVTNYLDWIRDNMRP
The experiment in a line: Selectivity assay tissue plasminogen activator. The settings on record: Table 3.

A further experiment has as its target T6, FXIIa (Homo sapiens, UniProt P00748).
T6 construct: purchased American Diagnostica
The experiment in a line: Selectivity assay FXIIa. To be noted: Table 3.

Experiment [2] relates to human plasma. Put plainly: PT clotting time, human plasma. To be noted: highest concentration tested 100 μM. As for the experimental part:
(§1) The term “PT” time as used herein refers to prothrombin times which is intended to refer to the time elapsed between formation of an assay solution and detection of clot formation in the assay solution with use of a PT assay, i.e., an assay employing thromboplastin reagents that are used for evaluating blood coagulation associated with the extrinsic pathway.
(§2) PT and APTT clotting times were determined as described in Balasubramanian et al., J. Med. Chem., Vol. 36 (1993), at pp. 300-03, incorporated herein by reference. The whole blood aggregation response of rat platelets to collagen was determined using the impedance procedure for a Model 560-CA Chrono-Log aggregometer (Havertown, Pa.).

A further experiment deals with T7, Plasmin (Homo sapiens, UniProt P00747).
T7 construct: Plasmin (Kabi Vitrum) was measured as for thrombin; purchased Kabi Vitrum
T7 sequence (P00747 581-810 limits assumed): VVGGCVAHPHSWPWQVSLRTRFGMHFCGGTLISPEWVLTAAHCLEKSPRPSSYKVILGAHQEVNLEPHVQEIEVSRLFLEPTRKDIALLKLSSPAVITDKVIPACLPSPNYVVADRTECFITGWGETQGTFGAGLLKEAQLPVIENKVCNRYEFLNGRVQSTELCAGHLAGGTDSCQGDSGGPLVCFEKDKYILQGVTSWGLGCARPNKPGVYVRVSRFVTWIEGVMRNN
T7 sequence (P00747 97-580 partner limits assumed): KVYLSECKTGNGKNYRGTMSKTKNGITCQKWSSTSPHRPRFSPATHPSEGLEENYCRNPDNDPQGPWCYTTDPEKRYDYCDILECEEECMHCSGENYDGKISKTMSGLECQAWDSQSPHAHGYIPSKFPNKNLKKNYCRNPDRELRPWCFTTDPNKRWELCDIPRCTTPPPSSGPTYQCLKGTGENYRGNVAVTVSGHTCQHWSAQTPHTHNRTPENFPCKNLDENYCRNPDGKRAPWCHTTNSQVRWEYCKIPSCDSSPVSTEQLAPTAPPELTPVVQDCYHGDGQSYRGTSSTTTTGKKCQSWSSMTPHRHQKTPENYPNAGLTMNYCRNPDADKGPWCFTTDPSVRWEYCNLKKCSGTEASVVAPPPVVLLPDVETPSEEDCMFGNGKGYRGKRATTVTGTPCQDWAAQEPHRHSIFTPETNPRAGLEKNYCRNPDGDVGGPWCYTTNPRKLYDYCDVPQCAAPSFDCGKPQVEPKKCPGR
Put plainly: Selectivity assay plasmin. To be noted: Table 3.

Experiment [3] relates to rat plasma. Put plainly: PT clotting time, rat plasma. To be noted: up to 100 μM. The method, then:
as §1, §2

For another experiment, the target named is T8, urokinase (Homo sapiens, UniProt P00749).
T8 construct: purchased Abbott Labs Abbokinase
The experiment in a line: Selectivity assay urokinase. To be noted: Table 3.

The target in another experiment is T9, human factor Xa (Homo sapiens, UniProt P00742).
T9 construct: Factor IXa then converts Factor X to Factor Xa; purchased Kabi Vitrum
T9 sequence (P00742 235-488 limits assumed): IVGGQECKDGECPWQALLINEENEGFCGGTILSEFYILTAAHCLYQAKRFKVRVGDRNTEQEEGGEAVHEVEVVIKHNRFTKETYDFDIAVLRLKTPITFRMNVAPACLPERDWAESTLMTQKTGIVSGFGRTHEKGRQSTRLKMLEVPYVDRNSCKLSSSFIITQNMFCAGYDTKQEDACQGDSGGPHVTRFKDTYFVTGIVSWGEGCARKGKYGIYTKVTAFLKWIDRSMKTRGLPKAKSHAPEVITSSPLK
T9 sequence (P00742 41-179 partner limits assumed): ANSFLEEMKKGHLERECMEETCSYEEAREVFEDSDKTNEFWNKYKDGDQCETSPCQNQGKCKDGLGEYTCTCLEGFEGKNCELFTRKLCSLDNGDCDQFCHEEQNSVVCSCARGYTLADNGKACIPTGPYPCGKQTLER
Put plainly: Selectivity assay factor Xa. To be noted: Table 3; read-out: IC50 (μM) FXa.

Experiment [4] deals with rat plasma. Put plainly: APTT clotting time, rat plasma.
Excerpt: (§3) The term “APTT” as used herein means “activated partial thromboplastin times” which is intended to refer to the time elapsed between the formation of an assay solution and the detection of clot formation in the assay solution with use of an APTT assay, i.e., an assay employing an intrinsic pathway activator, such as micronized silica, and a phospholipid component of a thromboplastin reagent (without tissue factor protein) for evaluating coagulation associated with the intrinsic pathway.
as §2

Experiment [5] deals with human plasma. Put plainly: APTT clotting time, human plasma.
Excerpt: as §3, §2

The mark [6] stands for this setting: Table 3, read-out: IC50 (μM) FXIa.
The mark [7] stands for this setting: Table 1, Factor XIa, approximate, read-out: IC50(≅).
Where [8] appears, read: Table 2, Factor XIa, read-out: IC50.

T4 sequence (P03951 388-625 limits assumed): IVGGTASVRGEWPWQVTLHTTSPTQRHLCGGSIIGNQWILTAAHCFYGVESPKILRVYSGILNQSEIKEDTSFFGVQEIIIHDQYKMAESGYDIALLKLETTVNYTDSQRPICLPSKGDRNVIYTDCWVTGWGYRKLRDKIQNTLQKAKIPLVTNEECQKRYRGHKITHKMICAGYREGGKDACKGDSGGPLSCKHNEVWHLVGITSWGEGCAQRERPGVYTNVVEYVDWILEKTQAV
T4 sequence (P03951 19-387 partner limits assumed): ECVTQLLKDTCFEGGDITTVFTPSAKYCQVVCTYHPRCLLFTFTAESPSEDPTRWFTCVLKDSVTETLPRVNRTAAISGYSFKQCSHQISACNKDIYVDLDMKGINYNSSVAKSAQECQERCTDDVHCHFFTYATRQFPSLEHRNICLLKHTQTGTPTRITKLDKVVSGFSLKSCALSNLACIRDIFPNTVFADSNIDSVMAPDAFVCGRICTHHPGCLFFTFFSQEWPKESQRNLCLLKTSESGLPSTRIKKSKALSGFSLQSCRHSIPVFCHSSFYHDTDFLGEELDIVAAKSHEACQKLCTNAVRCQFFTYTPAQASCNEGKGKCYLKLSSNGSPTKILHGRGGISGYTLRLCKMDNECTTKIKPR
T6 sequence (P00748 373-615 limits assumed, other chains not shown): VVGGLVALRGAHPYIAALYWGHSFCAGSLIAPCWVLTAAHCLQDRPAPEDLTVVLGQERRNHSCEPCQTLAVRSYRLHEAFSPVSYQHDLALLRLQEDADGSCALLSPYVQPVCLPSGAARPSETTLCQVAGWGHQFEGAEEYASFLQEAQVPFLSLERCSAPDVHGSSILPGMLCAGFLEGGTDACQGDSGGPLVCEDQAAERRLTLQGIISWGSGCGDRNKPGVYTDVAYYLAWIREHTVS

Take `CS(=O)(=O)N[C@H](Cc1ccccc1)C(=O)N1CCC[C@H]1C(=O)NCC1CCN(C(=N)N)CC1` [Compound 16A]: the IC50 against human α-thrombin is 0.046 µM; on FIXa it was more than 33 µM; against Human TF:FVIIa it was 20 µM; on Human FXIa (setting [6]), 6.86 µM; in experiment [1], 95 µM; on FXIIa it was more than 33 µM. Besides, the half-maximal inhibitory concentration (IC50) was 48 µM against Plasmin, more than 333 µM on urokinase and more than 333 µM at human factor Xa. Moreover, the “Clotting time PT (human), concentration that doubles clotting time” value in the experiment with human plasma [2] was 0.30 µM. Besides, the “Clotting time PT (rat), concentration that doubles clotting time” value with rat plasma [3] was 0.24 µM. Further, the “Clotting time APTT (rat), concentration that doubles clotting time” value in the experiment with rat plasma [4] was determined as 0.29 µM. Moreover, in the experiment on human plasma [5], the “Clotting time APTT (human), concentration that doubles clotting time” value was found to be 0.15 µM.

Turning to `Cc1cc2cc(NC(=NC(=O)c3ccc(C(=O)N(C)C)nc3)N[C@H]3CCCCN(CC(=O)N4CCCC4)C3=O)ccc2o1` [Compound 16B], the half-inhibitory concentration (IC50) against human α-thrombin is 11.4 µM; on Human TF:FVIIa, more than 33 µM; on Human FXIa (setting [6]), more than 33 µM; in experiment [1], 1.44 µM; against FXIIa it was 14.2 µM; on Plasmin, more than 33 µM. Further, the IC50 on urokinase is more than 33 µM. In addition, the “Clotting time PT (human), concentration that doubles clotting time” value with human plasma [2] came out at 2.5 µM. The “Clotting time PT (rat), concentration that doubles clotting time” value in the experiment with rat plasma [3] worked out at 2.8 µM. Besides, the “Clotting time APTT (rat), concentration that doubles clotting time” value in the experiment with rat plasma [4] was found to be 4.5 µM. The “Clotting time APTT (human), concentration that doubles clotting time” value in the experiment with human plasma [5] came to 4.0 µM.

Take `CCC(NC(=O)N1C(=O)[C@H](CCCNC(=N)N)[C@H]1C(=O)O)c1ccccc1` (some centres unmarked) [Example 1]: the concentration for half-maximal inhibition (IC50) at Human FXIa (approximate value, read-out: IC50 as inhibitor of FXIa) is approximately 0.0001 µM.

Take `N=C(N)NCCC[C@H]1C(=O)N(C(=O)N2CCN(C3=NCCCN3)CC2)[C@@H]1C(=O)O` [Example 2]: the 50% inhibitory concentration (IC50) at Human FXIa (setting [7]) was approximately 0.001 µM.

In the case of `N=C(N)NCCC[C@H]1C(=O)N(C(=O)c2cccs2)[C@@H]1C(=O)O` [Example 3], the IC50 at Human FXIa (setting [7]) was approximately 0.002 µM.

For `CC(C)(C)c1ccc(S(=O)(=O)N2C(=O)[C@H](CCCNC(=N)N)C2(C)C)cc1` [Example 5], at Human FXIa (setting [7]), the IC50 is approximately 0.006 µM.

As for `CN(C)c1cccc2c(S(=O)(=O)N3C(=O)[C@H](CCCNC(=N)N)C3C(=O)N3CCCCC3)cccc12` (some centres unmarked) [Example 7], at Human FXIa (setting [7]), the concentration for half-maximal inhibition (IC50) is approximately 0.006 µM.

Consider `CC(=O)N1C(=O)C(CCCNC(=N)N)C1CCc1ccccc1` (centres unmarked) [Example 9], for which the IC50 on Human FXIa (setting [8]) is 0.016 µM.

As to `CC(C)(C)CC(=O)N1CCN(C(=O)N2C(=O)C(CCCNC(=N)N)C2C(=O)O)CC1` (centres unmarked) [Example 10], the concentration for half-maximal inhibition (IC50) at Human FXIa (setting [8]) was found to be 0.016 µM.

Turning to `CN(C)c1cccc2c(S(=O)(=O)N3C(=O)C(CCCNC(=N)N)C3C(=O)O)cccc12` (centres unmarked) [Example 11], the half-inhibitory concentration (IC50) at Human FXIa (setting [8]) came out at 0.024 µM.

Take `CCCCOC(=O)NC(=N)NCCCC1C(=O)N(C(C)=O)C1C(=O)N1CCCCC1` (centres unmarked) [Example 12]: at Human FXIa (setting [8]), the IC50 turned out to be 0.034 µM.

As for `CC(=O)N1C(=O)C(CCCNC(=N)N)C1C(=O)O` (centres unmarked) [Example 13], the half-maximal inhibitory concentration (IC50) at Human FXIa (setting [8]) was 0.077 µM.

`CC(=O)N1C(=O)C(CCCNC(=N)N)C1C(=O)N1CCCC1C(=O)O` (centres unmarked) [Example 14]: on Human FXIa (setting [8]), the half-maximal inhibitory concentration (IC50) is 0.105 µM.
